Test results from patent US9243281B2, “Neuroprotective chemicals and methods for identifying and using same” (Board of Regents of The University of Texas System, priority 2013, dated 2016).

How the values were obtained:
[1] = test system: hippocampal neurogenesis (Dentate Gyrus); test: in vivo neurogenesis assay (BrdU+ cells in dentate gyrus); set-up: species or system mice; settings: living mice; vehicle (DMSO) 7.3
From the text: The screen was simple in concept. With help from chemists in the Department of Biochemistry at UTSWMC, we selected 1,000 druglike chemicals from the 250,000 compounds in our high throughput screening center. The compounds were selected to preserve representative chemical diversity of the entire library. They were further selected to enhance the representation of chiral molecules, and to avoid untoward chemical properties such as reactive moieties. The 1,000 molecules were randomly pooled into groups of ten, and each pool was administered directly into the left ventricle of two adult mice. Intracranial delivery was facilitated by stereotactic positioning of a canula fed directly by an Alzet mini-pump containing the mixture of ten chemicals. The drug mixture was administered over a week-long period at concentrations anticipated to deliver mid-nanomolar levels of the ten test compounds. Daily injections of the thymidine analog, bromodeoxyuridine (BrdU), were coadministered in order to monitor the formation of new hippocampal nerve cells. Following compound administration, animals were sacrificed such that brain tissue could be recovered, sectioned and stained with antibodies to BrdU. […]

p70 (NAMPT) = molecular target: T1, p70 (NAMPT) (Homo sapiens, UniProt P43490); test: binding competition for photo-crosslinking of P7C3-S326 to p70 in H2122 cells; settings: 0.3 μM P7C3-S326 plus 5 μM competitor, p70 band intensity, P7C3-S326 alone compared with plus competitor, vehicle 1.0
T1 construct: endogenous in cells; host or cells: H2122 lung cancer cells
Experimental: Cultured cells were co-exposed to P7C3-S326 (0.3 uM) and the individual P7C3 variants (5 uM), exposed to UV light, lysed, clicked to a fluorescent dye and run on SDS gels (FIG. 11).
P7C3-S326 was diluted to 0.3 μM in culture medium to treat H2122 cells. After incubation at 37° C. for 2 hours, H2122 cells were irradiated for 15 minutes under 306 nm ultraviolet light in a Stratalinker 2400 (Stratagene). Cells were then harvested by dissolving in 1% SDS lysis buffer 50 mM HEPES, pH 8.0, 2 mM MgCl2, 10 mM KCl, 1% SDS, 50 units/ml of Benzonase (Sigma), supplemented with Sigmafast protease inhibitor (Sigma).
The reaction was incubated at room temperature with constant agitation at 1,000 rpm on a thermomixer (Eppendorf) for 1 hour. Samples were then mixed with SDS sample loading buffer and loaded on an 8% SDS-PAGE gel, separated, and imaged using a Typhoon imager (filter settings: excitation 533 nm, emission 555 nm, and high sensitivity).
H2122 cells were incubated with the P7C3-S326 (0.3 μM) in the absence or presence of P7C3 analogs for 2 hours following by UV crosslinking. […] The samples were run on SDS-PAGE gels scanned using a Typhoon Imager. The p70 band intensity was analyzed and quantified by Image J, and the relative intensity in each assay was normalized to that of the DMSO control.

T1 sequence (P43490 whole entry): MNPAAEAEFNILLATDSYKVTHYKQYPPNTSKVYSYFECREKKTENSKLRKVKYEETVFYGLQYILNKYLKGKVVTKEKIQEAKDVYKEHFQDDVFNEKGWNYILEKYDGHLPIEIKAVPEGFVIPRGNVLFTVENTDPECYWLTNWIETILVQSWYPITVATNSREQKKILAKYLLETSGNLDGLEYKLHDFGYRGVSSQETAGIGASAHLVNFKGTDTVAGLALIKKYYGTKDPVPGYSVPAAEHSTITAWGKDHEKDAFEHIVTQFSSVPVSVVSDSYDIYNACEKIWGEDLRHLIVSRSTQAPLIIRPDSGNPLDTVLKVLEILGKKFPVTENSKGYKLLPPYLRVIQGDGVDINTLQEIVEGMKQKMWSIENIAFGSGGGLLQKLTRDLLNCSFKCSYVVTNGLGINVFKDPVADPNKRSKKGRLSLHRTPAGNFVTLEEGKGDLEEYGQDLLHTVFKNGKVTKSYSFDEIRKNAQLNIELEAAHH

## COc1c(Br)cc(OC)c2c1c1cc(Br)ccc1n2CC(O)CNc1ccccc1 (centres unmarked) [S160]
[1]
  Neurogenesis # BrdU+ Cells (X10E06)/mm3 Dentate Gyrus: 13.1 (X10E06)/mm3
p70 (NAMPT)
  Binding competition: 4.3

## Cc1cc(Br)cc2c3cc(Br)cc(C)c3n(CC(O)CNc3ccccc3)c12 (centres unmarked) [S161]
[1]
  Neurogenesis # BrdU+ Cells (X10E06)/mm3 Dentate Gyrus: 11.4 (X10E06)/mm3
p70 (NAMPT)
  Binding competition: 3.1

## CCOC(=O)Cn1c2ccc(Br)cc2c2cc(Br)ccc21 [S164]
[1]
  Neurogenesis # BrdU+ Cells (X10E06)/mm3 Dentate Gyrus: 7.6 (X10E06)/mm3
p70 (NAMPT)
  Binding competition: 1.3

## COc1c(Br)ccc2c1c1cc(Br)ccc1n2CC(O)CNc1ccccc1 (centres unmarked) [S168]
[1]
  Neurogenesis # BrdU+ Cells (X10E06)/mm3 Dentate Gyrus: 14.6 (X10E06)/mm3
p70 (NAMPT)
  Binding competition: 3.5

## CC(C)(O)Cn1c2ccc(Br)cc2c2cc(Br)ccc21 [S169]
[1]
  Neurogenesis # BrdU+ Cells (X10E06)/mm3 Dentate Gyrus: 9.2 (X10E06)/mm3
p70 (NAMPT)
  Binding competition: 3.0

## OC(CN1c2ccccc2CCc2ccccc21)CN1c2ccccc2CCc2ccccc21 [S170]
[1]
  Neurogenesis # BrdU+ Cells (X10E06)/mm3 Dentate Gyrus: 11.2 (X10E06)/mm3
p70 (NAMPT)
  Binding competition: 1.5

## OCCn1c2ccc(Br)cc2c2cc(Br)ccc21 [S171]
[1]
  Neurogenesis # BrdU+ Cells (X10E06)/mm3 Dentate Gyrus: 13.1 (X10E06)/mm3
p70 (NAMPT)
  Binding competition: 3.2

## O=C(O)c1cc2c3ccccc3n(CC(O)COc3ccccc3)c2cn1 (centres unmarked) [S172]
[1]
  Neurogenesis # BrdU+ Cells (X10E06)/mm3 Dentate Gyrus: 14.2 (X10E06)/mm3
p70 (NAMPT)
  Binding competition: 1.1

## O=C(O)c1cc2c3cc(Br)ccc3n(CC(O)COc3ccccc3)c2cn1 (centres unmarked) [S173]
[1]
  Neurogenesis # BrdU+ Cells (X10E06)/mm3 Dentate Gyrus: 12.8 (X10E06)/mm3
p70 (NAMPT)
  Binding competition: 1.0

## CCOC(=O)c1cc2c3cc(Br)ccc3n(CC(O)COc3ccccc3)c2cn1 (centres unmarked) [S174]
[1]
  Neurogenesis # BrdU+ Cells (X10E06)/mm3 Dentate Gyrus: 9.3 (X10E06)/mm3
p70 (NAMPT)
  Binding competition: 1.8

## CC(O)(COc1ccccc1)Cn1c2ccc(C#N)cc2c2cc(C#N)ccc21 (centres unmarked) [S177]
[1]
  Neurogenesis # BrdU+ Cells (X10E06)/mm3 Dentate Gyrus: 13.9 (X10E06)/mm3
p70 (NAMPT)
  Binding competition: 4.3

## OC(COC1CCCCC1)Cn1c2ccc(Br)cc2c2cc(Br)ccc21 (centres unmarked) [S178]
[1]
  Neurogenesis # BrdU+ Cells (X10E06)/mm3 Dentate Gyrus: 13.8 (X10E06)/mm3
p70 (NAMPT)
  Binding competition: 1.7

## COc1cccc(N(/C=C/Cn2c3ccc(Br)cc3c3cc(Br)ccc32)S(=O)(=O)C(F)(F)F)c1 [S179]
[1]
  Neurogenesis # BrdU+ Cells (X10E06)/mm3 Dentate Gyrus: 17.3 (X10E06)/mm3
p70 (NAMPT)
  Binding competition: 0.9

## CN(C)C[C@@H](O)CN1c2ccccc2CCc2ccccc21 [S182]
[1]
  Neurogenesis # BrdU+ Cells (X10E06)/mm3 Dentate Gyrus: 6.8 (X10E06)/mm3
p70 (NAMPT)
  Binding competition: 1.1

## OC(COc1ccccc1)Cn1c2ccncc2c2cc(Br)ccc21 (centres unmarked) [S183]
[1]
  Neurogenesis # BrdU+ Cells (X10E06)/mm3 Dentate Gyrus: 7.7 (X10E06)/mm3
p70 (NAMPT)
  Binding competition: 4.0

## OC(CNc1cccc2ccccc12)Cn1c2ccc(Cl)cc2c2cc(Cl)ccc21 (centres unmarked) [S184]
[1]
  Neurogenesis # BrdU+ Cells (X10E06)/mm3 Dentate Gyrus: 6.7 (X10E06)/mm3
p70 (NAMPT)
  Binding competition: 2.5

## OC(CNc1cccc2ccccc12)Cn1c(-c2ccccc2)cc2ccccc21 (centres unmarked) [S185]
[1]
  Neurogenesis # BrdU+ Cells (X10E06)/mm3 Dentate Gyrus: 12.6 (X10E06)/mm3
p70 (NAMPT)
  Binding competition: 1.5

## OC(COc1ccccc1)Cn1c2ccc(Br)cc2c2cccnc21 (centres unmarked) [S186]
[1]
  Neurogenesis # BrdU+ Cells (X10E06)/mm3 Dentate Gyrus: 8.1 (X10E06)/mm3
p70 (NAMPT)
  Binding competition: 3.4

## OC(COc1ccccc1)Cn1c2ccc(Br)cc2c2cc(Br)cnc21 (centres unmarked) [S187]
[1]
  Neurogenesis # BrdU+ Cells (X10E06)/mm3 Dentate Gyrus: 12.6 (X10E06)/mm3
p70 (NAMPT)
  Binding competition: 2.9

## COc1cccc(NCC(O)Cn2c3ccc(Br)cc3c3cc(Br)ccc32)n1 (centres unmarked) [S188]
[1]
  Neurogenesis # BrdU+ Cells (X10E06)/mm3 Dentate Gyrus: 13.1 (X10E06)/mm3
p70 (NAMPT)
  Binding competition: 3.1

## Cc1cc2c3cc(Br)ccc3n(CC(O)COc3ccccc3)c2cn1 (centres unmarked) [S190]
[1]
  Neurogenesis # BrdU+ Cells (X10E06)/mm3 Dentate Gyrus: 8.4 (X10E06)/mm3
p70 (NAMPT)
  Binding competition: 4.1

## N#Cc1cc2c3cc(Br)ccc3n(CC(O)COc3ccccc3)c2cn1 (centres unmarked) [S192]
[1]
  Neurogenesis # BrdU+ Cells (X10E06)/mm3 Dentate Gyrus: 10.5 (X10E06)/mm3
p70 (NAMPT)
  Binding competition: 4.2

## COc1ccc2[nH]cc(CCNC(C)=O)c2c1 [S193]
[1]
  Neurogenesis # BrdU+ Cells (X10E06)/mm3 Dentate Gyrus: 7.8 (X10E06)/mm3
p70 (NAMPT)
  Binding competition: 1.1

## OC(COc1ccccc1)Cn1c2ccc(Br)cc2c2ncccc21 (centres unmarked) [S194]
[1]
  Neurogenesis # BrdU+ Cells (X10E06)/mm3 Dentate Gyrus: 8.1 (X10E06)/mm3
p70 (NAMPT)
  Binding competition: 5.1

## [O-][n+]1ccc2c(c1)c1cc(Br)ccc1n2CC(O)COc1ccccc1 (centres unmarked) [S195]
[1]
  Neurogenesis # BrdU+ Cells (X10E06)/mm3 Dentate Gyrus: 9.0 (X10E06)/mm3
p70 (NAMPT)
  Binding competition: 1.1
